By IC50 is commonly meant the midpoint of a concentration-inhibition curve.

Among the data in PubChem BioAssay AID1435 (PCMD, 2008) are IC50 values, retold here.

The experiment addresses DNA repair protein RAD51 homolog 1 (Homo sapiens) (UniProt Q06609). In words: RAD51 recombination inhibitor potency, dose response, biochemical, homologous recombination, fluorescence (AID 1435). The conditions noted are these: RAD51 homologous recombination biochemical assay.

The structures appear in SMILES notation. Active and inactive are the calls of the source. How the calls were made is not given here.

Chain of DNA repair protein RAD51 homolog 1 (Homo sapiens) (Q06609 whole entry, looked up): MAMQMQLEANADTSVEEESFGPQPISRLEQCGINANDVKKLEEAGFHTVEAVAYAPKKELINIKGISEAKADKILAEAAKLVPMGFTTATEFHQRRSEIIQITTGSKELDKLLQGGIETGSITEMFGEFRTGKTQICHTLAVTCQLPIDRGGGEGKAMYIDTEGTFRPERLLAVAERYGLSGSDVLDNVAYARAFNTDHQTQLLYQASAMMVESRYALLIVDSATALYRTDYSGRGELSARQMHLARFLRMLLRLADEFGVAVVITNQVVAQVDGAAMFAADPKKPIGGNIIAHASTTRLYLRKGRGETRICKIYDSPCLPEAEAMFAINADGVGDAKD

Take `CCCCCOCC1CC(C/C(C)=N/Nc2nc(-c3ccccc3)cs2)C(=O)O1` (stereo not drawn): the IC50 was > 85 µM (inactive).
For `COc1cccc2c1C(=O)c1c(O)c3c(c(O)c1C2=O)C[C@@](O)(C(=O)CO)C[C@@H]3O[C@H]1C[C@H](N)[C@@H](O)[C@H](C)O1` the value was 1.4 µM; for `COC(=O)/C(=C\Nc1cccc(Cl)c1C)c1ncc(C(F)(F)F)cc1Cl`, > 85 µM (inactive).
